This experiment concerns the target T1, LGR5 (Homo sapiens, UniProt O75473).
T1 construct: purchased Promega (in-house HiBiT-GPCR construct library, NanoBRET)
T1 sequence (O75473 22-907): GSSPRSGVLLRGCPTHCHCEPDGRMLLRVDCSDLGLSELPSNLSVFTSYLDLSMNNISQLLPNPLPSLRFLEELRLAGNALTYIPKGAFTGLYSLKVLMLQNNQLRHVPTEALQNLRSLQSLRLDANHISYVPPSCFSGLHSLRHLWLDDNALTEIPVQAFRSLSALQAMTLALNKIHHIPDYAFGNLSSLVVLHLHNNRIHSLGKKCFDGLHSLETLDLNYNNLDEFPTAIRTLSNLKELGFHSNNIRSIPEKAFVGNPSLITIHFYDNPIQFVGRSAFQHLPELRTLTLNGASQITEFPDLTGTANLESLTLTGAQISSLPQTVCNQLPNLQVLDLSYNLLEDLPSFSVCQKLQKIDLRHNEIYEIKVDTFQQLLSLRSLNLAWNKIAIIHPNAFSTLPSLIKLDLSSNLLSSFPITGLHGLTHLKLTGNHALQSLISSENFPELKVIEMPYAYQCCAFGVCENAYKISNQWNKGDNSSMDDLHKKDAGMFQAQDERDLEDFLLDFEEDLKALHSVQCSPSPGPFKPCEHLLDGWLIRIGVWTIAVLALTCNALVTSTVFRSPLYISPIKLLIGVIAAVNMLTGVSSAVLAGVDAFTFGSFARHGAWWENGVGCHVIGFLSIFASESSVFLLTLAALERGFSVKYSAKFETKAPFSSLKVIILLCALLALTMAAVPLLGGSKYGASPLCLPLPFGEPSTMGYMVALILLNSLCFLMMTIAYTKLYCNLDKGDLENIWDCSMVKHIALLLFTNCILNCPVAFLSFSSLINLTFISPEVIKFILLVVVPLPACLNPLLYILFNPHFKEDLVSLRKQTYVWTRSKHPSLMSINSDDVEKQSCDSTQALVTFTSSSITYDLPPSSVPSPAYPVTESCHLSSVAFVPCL
Kind of experiment: NanoBRET screen HiBiT-LGR5 in HEK293. The class given is binding. On the procedure:
Each tracer candidate was screened across the entire library of HiBiT-GPCR constructs using NanoBRET as the detection modality. As depicted in Figure 4A, the specificity of interactions was evaluated through decrease in BRET due to competitive displacement of a bound tracer by excess parental compound. Each tracer was analyzed for binding to each HiBiT-GPCR fusion in the absence and in the presence of competing parental compound. Briefly, HEK293 cells were transfected with HiBiT-GPCR constructs diluted into promoterless DNA to reduce expression and maximize translocation to the cell surface. Each tracer candidate was then screened at concentrations of 1 μM and 0.1 μM across cells expressing these fusions. Cells were treated for 1.5 h with tracer either alone or in the presence of 20 μM competing parental compound (i.e., control). BRET was measured upon addition of purified LgBiT and subsequent complementation with HiBiT genetically fused to a GPCR. The specificity of interactions was assessed through a decrease in BRET signal due to competitive displacement of the bound tracer. To further gauge the robustness of these interactions, the fold response over the control (i.e., BRETtracer/BRETcontrol) was calculated. We chose a 1.5-fold response, which translates to ≥7-fold signal over noise as the minimal threshold required to score an interaction as positive.
HiBiT-GPCR DNA constructs were diluted in 10 mM Tris pH 8 to a final concentration of 0.01 μg/μL, arrayed in 96-well plates and stored at −20 °C. For transfection, HEK293 cells were suspended in Opti-MEM (without phenol red) supplemented with 2% fetal bovine serum (Seradigm) and 100 units/mL penicillin–streptomycin (Gibco) at a final concentration of 220,000 cells/mL and dispensed into white 96-well plates at 90 μL/well. Subsequent transfections and screens were carried using an Agilent Bravo Automated Liquid Handling Platform. First, the 96-well HiBiT DNA arrays were diluted 25-fold in Opti-MEM (without serum or phenol red) to a final concentration of 0.0004 μg/μL and 20 μL of the diluted DNAs were transferred into new 96-well plates. Next, promoterless carrier DNA (1 μg/μL) was diluted 25-fold (0.04 μg/μL) and then dispensed into the diluted arrays at 20 μL/well. Following brief mixing, Viafect transfection reagent (Promega) diluted 16-fold into Opti-MEM was dispensed into the plates at 40 μL/well. After mixing by pipetting, plates were incubated for 10 min on the pipetting station deck. The DNA-transfection reagent complexes were then added to plates containing cells. To facilitate the screen, 10 μL of DNA-transfection reagent complexes were added in duplicates to the top 4 and bottom 4 rows, resulting in two identical 48-well arrays per plate. Plates with transfected cells were incubated for 18–20 h at 37 °C/5% CO2. A screen of each tracer across the entire library using two different concentrations requires duplicate plates of transfected cells. Depending on the number of tracers being screened, transfections can be scaled up using the same ratios. The next day, for each tracer, four 20× screening solutions in tracer dilution buffer (Promega) were prepared: two duplicates at final concentration of 20 μM and two duplicates at a final concentration of 2 μM. […] The four resulting solutions were diluted 4-fold in Opti-MEM without serum or phenol red to generate 5× solutions (5 µM and 0.5 µM tracer +/− 100 μM competing compound). To screen the library, a BioTek MultiFlo FX liquid dispenser was used to dispense 22.5 µL of tracer solution to the top 4 rows and 22.5 µL tracer + competing compound solution to the 4 bottom rows. Plates were briefly mixed on an orbital shaker and incubated for 1.5 h at room temperature. […] Plates were briefly mixed on an orbital shaker and incubated for 15 min to allow complementation.
For orientation: BRET reads energy transfer from a luciferase to a nearby fluorophore.

Consider `O=C(CCOCCOCCOCCOCCNC(=O)CCc1ccc2n1[B-](F)(F)[N+]1=C(c3ccc[nH]3)C=CC1=C2)NCCCN1CCN(C2=Nc3ccccc3Oc3ccc(Cl)cc32)CC1` [Loxapine-a-2-NB590], for which the “NanoBRET Fold Response” value (LGR5, tracer 0.1μM) turned out to be 0.94 and the “NanoBRET Fold Response” value (LGR5, tracer 1μM) worked out at 0.97.

As to `CCCn1c(=O)c2[nH]c(-c3ccc(OCC(=O)NCCNC(=O)CCOCCNC(=O)c4ccc(CNC(=O)CCc5ccc6n5[B-](F)(F)[N+]5=C(c7ccc[nH]7)C=CC5=C6)cc4)cc3)nc2n(CCC)c1=O` [XAC-3-NB590], the “NanoBRET Fold Response” value (LGR5, tracer 0.1μM) is given as 0.95 and the “NanoBRET Fold Response” value (LGR5, tracer 1μM) worked out at 0.89. For the compound `CN(C)CCC=C1c2ccccc2CCc2ccc(C(=O)NCCNC(=O)CCOCCOCCOCCOCCNC(=O)CCc3ccc4n3[B-](F)(F)[N+]3=C(c5ccc[nH]5)C=CC3=C4)cc21` [Amitriptyline-a-2-NB590], the “NanoBRET Fold Response” value reads like this: (tracer at 0.1μM) 0.91; (tracer at 1μM) 1.02. In the case of `COc1ccccc1N1CCN(CCCCN2C(=O)c3ccc(CNC(=O)CCOCCOCCOCCOCCNC(=O)CCc4ccc5n4[B-](F)(F)[N+]4=C(c6ccc[nH]6)C=CC4=C5)cc3C2=O)CC1` [NAN-190-2-NB590], the “NanoBRET Fold Response” value runs as follows: (LGR5, tracer 0.1μM) 1.22; (LGR5, tracer 1μM) 0.83.

`O=C(CCc1ccc2n1[B-](F)(F)[N+]1=C(c3ccc[nH]3)C=CC1=C2)NCc1ccc(C(=O)NCCOCCOCCNCC(O)COc2cccc3ccccc23)cc1` (stereo not drawn) [Propranolol-3-NB590]: the “NanoBRET Fold Response” value (LGR5, 0.1μM) stood at 1.10 and the “NanoBRET Fold Response” value (LGR5, 1μM) came to 0.93. Take `COc1ccccc1N1CCN(CCCCN2C(=O)c3ccc(CNC(=O)CCOCCNC(=O)c4ccc(CNC(=O)CCc5ccc6n5[B-](F)(F)[N+]5=C(c7ccc[nH]7)C=CC5=C6)cc4)cc3C2=O)CC1` [NAN-190-3-NB590]: the “NanoBRET Fold Response” value (LGR5, tracer 0.1μM) is 1.30 and the “NanoBRET Fold Response” value (LGR5, tracer 1μM) stood at 0.72. On the same counts, the results for `O=C(CCc1ccc2n1[B-](F)(F)[N+]1=C(c3ccc[nH]3)C=CC1=C2)NCc1ccc(C(=O)NCCOCCC(=O)N[C@@H]2CC[C@@]3(O)[C@H]4Cc5ccc(O)c6c5[C@@]3(CCN4CC3CC3)[C@H]2O6)cc1` [Naltrexone-3-NB590] are 0.41 and 1.33.

For `CCOC(=O)c1cc(C#N)c(N2CCC(C(=O)NS(=O)(=O)Cc3ccccc3/C=C/C(=O)NCCNC(=O)CCc3ccc4n3[B-](F)(F)[N+]3=C(c5ccc[nH]5)C=CC3=C4)CC2)nc1C` [AZD1283-1-NB590], the “NanoBRET Fold Response” value was found to be 0.86 (LGR5, 0.1μM) and 0.91 (LGR5, 1μM). With `COc1ccc2[nH]c(-c3ccc(CNC(=O)CCOCCOCCOCCOCCNC(=O)CCc4ccc5n4[B-](F)(F)[N+]4=C(c6ccc[nH]6)C=CC4=C5)cc3)c(CCNC(C)=O)c2n1` [AzomelatoninICO9-2-NB590], the “NanoBRET Fold Response” value (0.1μM tracer) is recorded as 1.35 and the “NanoBRET Fold Response” value (1μM tracer) came out at 0.94. With `CC(C)N(CC[C@H](c1ccccc1)c1cc(CCNC(=O)CCOCCOCCOCCOCCNC(=O)CCc2ccc3n2[B-](F)(F)[N+]2=C(c4ccc[nH]4)C=CC2=C3)ccc1O)C(C)C` [Tolterodine-2-NB590], the “NanoBRET Fold Response” value by setting is: (LGR5, tracer 0.1μM) 0.91; (LGR5, tracer 1μM) 0.71.

Turning to `CN1CCN(C2=Nc3cc(Cl)ccc3N(CC(=O)NCCOCCOCCOCCOCCNC(=O)CCc3ccc4n3[B-](F)(F)[N+]3=C(c5ccc[nH]5)C=CC3=C4)c3ccccc32)CC1` [Clozapine-c-2-NB590], the “NanoBRET Fold Response” value (LGR5, 1μM tracer) is 0.83. As for `N#CN=C(NCCCOc1cccc(CN2CCCCC2)c1)NCCNC(=O)CCOCCOCCOCCOCCNC(=O)CCc1ccc2n1[B-](F)(F)[N+]1=C(c3ccc[nH]3)C=CC1=C2` [Aminopotentidine-2-NB590], the “NanoBRET Fold Response” value (LGR5, tracer 0.1μM) turned out to be 0.79 and the “NanoBRET Fold Response” value (LGR5, tracer 1μM) came out at 1.15. Turning to `COc1ccc2c(n1)c(CCNC(C)=O)cn2CCNC(=O)CCc1ccc2n1[B-](F)(F)[N+]1=C(c3ccc[nH]3)C=CC1=C2` [Azamelatonin-1-NB590], the “NanoBRET Fold Response” value (0.1μM tracer) came to 0.96 and the “NanoBRET Fold Response” value (1μM tracer) was found to be 0.96. On to `CN(CCC=C1c2ccccc2CCc2ccccc21)C(=O)CCOCCOCCOCCOCCNC(=O)CCc1ccc2n1[B-](F)(F)[N+]1=C(c3ccc[nH]3)C=CC1=C2` [Amitriptyline-e-2-NB590], for which the “NanoBRET Fold Response” value (tracer at 1μM) came to 0.85.

As for `CC(C)N(CC[C@H](c1ccccc1)c1cc(CCNC(=O)c2ccc(CNC(=O)CCc3ccc4n3[B-](F)(F)[N+]3=C(c5ccc[nH]5)C=CC3=C4)cc2)ccc1O)C(C)C` [Tolterodine-BZ-NB590], the “NanoBRET Fold Response” value (LGR5, tracer 0.1μM) is 0.91 and the “NanoBRET Fold Response” value (LGR5, tracer 1μM) was 0.89. For `O=C(CCc1ccc2n1[B-](F)(F)[N+]1=C(c3ccc[nH]3)C=CC1=C2)NCCOCCOCCNC(=O)OCCOCCN1CCN(C2=Nc3ccccc3Sc3ccccc32)CC1` [Quetiapine-a-2-NB590], the “NanoBRET Fold Response” value is given as 1.02 (LGR5, tracer 0.1μM) and 0.78 (LGR5, tracer 1μM).

Take `Cc1cc2c(s1)Nc1ccccc1N=C2N1CCN(CCCNC(=O)CCOCCOCCOCCOCCNC(=O)CCc2ccc3n2[B-](F)(F)[N+]2=C(c4ccc[nH]4)C=CC2=C3)CC1` [Olanzapine-a-2-NB590]: the “NanoBRET Fold Response” value by setting is: (LGR5, tracer 0.1μM) 0.91; (LGR5, tracer 1μM) 0.81. In the case of `CN(C)CCC=C1c2ccccc2CCc2ccc(C(=O)NCCNC(=O)CCOCCOCCOCCOCCNC(=O)CCc3ccc4n3[B-](F)(F)[N+]3=C(c5ccc[nH]5)C=CC3=C4)cc21` [Amitriptyline-b-2-NB590], the “NanoBRET Fold Response” value (tracer at 0.1μM, listed as amitriptyline-b-2-NB590) stood at 1.19 and the “NanoBRET Fold Response” value (tracer at 1μM, listed as amitriptyline-b-2-NB590) was determined as 1.19.

With `O=C(CCOCCOCCOCCOCCNC(=O)CCc1ccc2n1[B-](F)(F)[N+]1=C(c3ccc[nH]3)C=CC1=C2)NCCCN1CCN(C2=Nc3cc(Cl)ccc3Nc3ccccc32)CC1` [Clozapine-a-2-NB590], the “NanoBRET Fold Response” value by setting is: (LGR5, 0.1μM tracer) 0.94; (LGR5, 1μM tracer) 0.79. Turning to `CN1CCN(C2=Nc3cc(Cl)ccc3Nc3ccc(CNC(=O)CCOCCOCCOCCOCCNC(=O)CCc4ccc5n4[B-](F)(F)[N+]4=C(c6ccc[nH]6)C=CC4=C5)cc32)CC1` [Clozapine-b-2-NB590], the “NanoBRET Fold Response” value (LGR5, 0.1μM tracer) is 0.95.

Consider `Cc1nc2n(c(=O)c1CCN1CCC(c3noc4cc(F)ccc34)CC1)CCCC2OC(=O)NCCOCCOCCOCCOCCNC(=O)CCc1ccc2n1[B-](F)(F)[N+]1=C(c3ccc[nH]3)C=CC1=C2` (stereo not drawn) [Risperidone-2-NB590], for which the “NanoBRET Fold Response” value runs as follows: (LGR5, tracer 0.1μM) 1.07; (LGR5, tracer 1μM) 1.18.

Values taken from publication PMC8151276, “An Integrated Approach toward NanoBRET Tracers for Analysis of GPCR Ligand Engagement” (Molecules, 2021).
